Measured values from patent US20210121482A1, “WITHANOLIDES FOR THE TREATMENT OF CACHEXIA” (University of Louisville Research Foundation, Inc., priority 2019, published 2021).

Key:
[1] = system: Caspase 1, NLRP3, IL-1β, IL-18, HO-1; experiment: IHC of NLRP3 inflammasome proteins in tumor samples; format: in vivo, mice
Method: Immunohistochemistry of Tumor Tissue: For the detection of various proteins, 10 μm thick sections were made from the midsection of tumor samples. A hydrophobic boundary was drawn around the sections and then they were fixed in 3.7% formaldehyde solution for 10 minutes. The slides were washed three times with 1×PBS for 5 minutes each. The sections were then blocked in 2% BSA in PBS for 30 minutes. The sections were then incubated with primary antibodies (1:100 dilution) overnight in a humidity chamber at 4° C. The sections were then washed three times with 1×PBS for 5 minutes. The slides were incubated in appropriate secondary antibodies (1:2000 dilution) for 45-60 minutes. Sections were counterstained with DAPI (1:2500 dilution) for 5 minutes to visualize nuclei. Slides were then washed twice in 1×PBS for 5 minutes, and then mounted for visualization. Nonspecific background staining was determined by performing the above protocol with omitting the inclusion of the primary antibodies. Refer to Table 2 for a complete list of antibodies utilized.

[2] = system: TNFα, IFNγ, IL-6, IL-8, IL-18 in tumor samples; experiment: Human MAP multiplex assay of tumor samples; format: in vivo; settings: vs vehicle treated group
Description: Samples were minced on ice with sterilized scissors.

CAOV3 = CAOV3 cells; cited from earlier work
[3] = system: A2780 ovarian cancer cells; experiment: Tumor burden: free peritoneal tumors and bilateral ovaries (Example 3); format: in vivo, mice; settings: tumor-bearing
Description: (§1) Experimental tumors were induced as described in Example 2.
(§2) No significant difference in tumor weight between the two doses of WFA was observed (p=0.65).
The IP tumors were metastasized to select organs/anatomic regions known to be highly estrogen-responsive, including free-peritoneal tumors shown in FIG. 19D and bilateral ovaries shown in FIG. 19E.

[4] = Change in tumor-free body weight (Example 3); format: in vivo, mice; settings: tumor-bearing, 2 and 4 mg/kg, vs tumor-bearing vehicle
Description: as §1, §2

[5] = system: heart (cardiomyocytes, collagen deposition); experiment: Histology and morphometric heart analysis; format: in vivo, mice
Description: The hearts were isolated, flash frozen in liquid nitrogen, mounted in O.C.T. embedding medium, and then sectioned using a microtome cryostat. To assess tissue morphology, 8 μm thick transverse sections were cut from the mid-ventricle of the heart. These sections were then subjected to H&E staining or Masson's trichrome staining. Images of H&E-stained and Masson's trichrome-stained heart sections were quantified using Fiji software (National Institutes of Health software) to measure myofiber cross-sectional area (CSA) or the degree of collagen deposition, respectively. Cardiac myofiber CSA was calculated by analyzing 100-200 fibers per heart. Collagen deposition was quantified from the Masson's trichrome-stained tissue.

[6] = Body composition by DEXA scan; format: in vivo, mice; settings: 2 and 6 mg/kg
Method: Analysis of Body Composition: Body fat and lean mass composition, as well as the bone mineral content and density, excluding head region of interest (ROI), were determined by dual-energy X-ray absorptiometry (DEXA) scan using a mouse densitometer (PIXImus 2; Lunar, Madison, Wis., USA). According to the manufacturer's guidelines to calibrate and validate the performance of the apparatus, a “mouse phantom” provided with the machine was scanned before scanning the first mouse. Animals were […] immediately before assessment by DEXA scan. The mouse was then transferred to the disposable PIXImus measuring tray in the prone position with their head in a loosely fitting nose cone to aid positioning. Upon completion of the DEXA scan, approximately five minutes, the mouse was placed on ice to preserve tissue prior to collection.

[7] = system: ovarian cancer-induced cachexia; experiment: Grip strength (Example 1); format: in vivo, mice; settings: for normalized forelimb grip strength: 2 and 6 mg/kg
Method: Grip Strength Measurements: Before assessment, mice were weighed on a commercially available digital scale. Forepaw and total grip strength of mice were measured using a digital grip strength meter (Columbus Instruments, Columbus, Ohio, USA) and then normalized by total body weight. Before the beginning of the test, the mice were acclimatized for five minutes. The mouse was allowed to grasp the total paw pull-bar assembly, and in a separate experiment the forepaw pull-bar assembly. The mouse was then gently drawn with constant force in a straight line away from the device until the mouse could no longer grasp the bar. Force at time of release was recorded as the peak tension. Each mouse was tested five times with a delay of 20-40 seconds between each testing. The mean peak tension was calculated from the recordings normalized by total body weight.

[8] = system: poly-ubiquitinated proteins; experiment: Immunoblot for poly-ubiquitinated proteins; format: in vivo, mice; settings: WFA treatment, 2 and 4 mg/kg
Method: Protein Extraction and Western Blotting: Quadriceps femoris (QF) samples were homogenized in chilled RIPA buffer (Sigma) supplemented with a Complete Mini Protease Inhibitor tablet (Roche Molecular Biochemicals, Indianapolis, Ind.). Tissue lysates were centrifuged at 10,000 RPM and the supernatants were collected. Protein concentration for each sample was determined using the Bradford reagent method (Bio-Rad), according to manufacturer's instructions. Protein lysates (50 μg) were separated on 10% SDS-PAGE gels at 100 volts for 2 h. The proteins were transferred to nitrocellulose membranes at 100 volts for 90 minutes. The membranes were blocked with 5% non-fat milk in Tris Buffered Saline supplemented with Tween-20 (0.5%; TBS-T) for 30-60 minutes. The membranes were then washed 3 times with TBS-T for 5 minutes. The membranes were then incubated with primary antibody at 4° C. overnight. The membranes were washed 3 times with TBS-T for 5 minutes each followed by incubation in TBS-T containing horseradish peroxidase conjugated secondary antibody (1:2000 dilution) for 1 h. The membranes were rinsed 3 times with TBS-T for 5 minutes each. Visualization of immunoreactive bands was enhanced using chemiluminescence reagents (Sigma). […]

## CC1=C(CO)C(=O)O[C@@H]([C@@H](C)[C@H]2CC[C@H]3[C@@H]4C[C@H]5O[C@]56[C@@H](O)C=CC(=O)[C@]6(C)[C@H]4CC[C@]23C)C1 [WFA, (4β,5β,6β,22R)-4,27-Dihydroxy-5,6:22,26-diepoxyergosta-2,24-diene-1,26-dione]
[1]; 2 mg/kg
  expression of IL-1β, IL-18 and HO-1 in tumor (IHC): drastically lowered the expression of IL-1β and IL-18 and increased the expression of HO-1
[1]; 6 mg/kg
  expression of IL-1β, IL-18 and HO-1 in tumor (IHC): intermediate expression of all three proteins
[1]; 2 and 6 mg/kg, vs vehicle treated group
  Caspase 1 and NLRP3 staining in tumor (IHC): reduction in Caspase 1 and NLRP3 staining
[2]; 2 and 6 mg/kg
  cytokine levels of IL-18 in tumor (multiplex): significant reduction in the cytokine levels of IL-18
[2]; high dose (6 mg/kg)
  levels of TNFα, IFNγ, IL-6, IL-8 in tumor (multiplex): mixed result of up- and downregulation of proinflammatory cytokines
[2]; low dose (2 mg/kg)
  levels of TNFα, IFNγ, IL-6, IL-8 in tumor (multiplex): significantly reduced the expression of all proinflammatory cytokines tested
CAOV3
  cell cycle arrest and apoptosis: induces cell cycle arrest and the induction of apoptosis
[3]; WFA 2 mg/kg
  normalized weights of the bilateral ovaries: 10.38±1.32 mg/g IBW
  weight of visible tumors: 1.6 ± 0.19 g
[3]; WFA 4 mg/kg
  normalized weights of the bilateral ovaries: 12.05±2.09 mg/g IBW
  weight of visible tumors: 1.9 ± 0.35 g
[4]
  absolute change in tumor-free body weight: significant preservation of body weight loss
[5]; tumor-bearing WFA-treated groups vs tumor-bearing vehicle
  cross-sectional area (CSA) of cardiomyocytes: partial recovery of the CSA of cardiomyocytes
[5]; tumor-bearing, both doses, vs tumor-bearing vehicle
  reduction in heart weight (normalized by tibial length): significantly blunted
[5]; tumor-bearing, either dose, vs tumor-bearing vehicle
  percentage of connective tissue in heart: significantly decreased
[5]; tumor-free WFA-treated groups vs tumor-free vehicle
  collagen deposition / connective tissue in heart: comparable amount of connective tissue
[5]; tumor-free animals
  heart weight: did not have any effect on heart weight in tumor-free animals
[6]
  bone mineral density or content: No significant differences
[6]; all tumor-bearing groups vs control
  proportion of lean tissue to body weight: significant increase in the proportion of lean tissue to body weight
[6]; vs vehicle treated group
  proportion of adipose tissue to whole body weight: attenuation of adipose tissue
[7]; 2 mg/kg, vs vehicle treated group, weeks 1-3
  normalized total limb grip strength: significant protective effect on total limb grip strength
[7]; 6 mg/kg, vs vehicle treated group
  normalized total limb grip strength: initially protective, but the grip strength eventually deteriorated to the same extent as the vehicle treated group
[7]; vs control group, significant at week 3
  normalized forelimb grip strength: reduction in normalized grip strength
[7]; vs vehicle treated group, significant by week 2
  normalized forelimb grip strength: attenuation of normalized forelimb grip strength
[8]
  pan-ubiquitination of proteins (immunoblot): reduced in response to WFA treatment
